Nine compounds from patent US20230255205A1, “HERBICIDAL HETEROCYCLIC DERIVATIVES” (MoA Technology Limited, priority 2020, published 2023) can be followed below.

Holding throughout (assay type): in vivo
In test [1] the test system is Echinochloa crus-galli (ECHCG). Nature of the test: Comparative tests against non-claimed structural analogues, % visual injury. The following applies: rate 125 g/ha. The protocol: (§1) Selected compounds of the invention were also assessed in comparative tests (Table 5) against structural analogues not according to the invention (e.g. a compound containing an imidazole and one containing an oxazole, neither of which fall within the scope of the claimed invention). In each test, compounds were applied at a rate of 125 g/ha. Test 1 compared the efficacy of a compound of the invention (93) with a non-claimed structure which contains an unsubstituted triazole (105). […] Test 2 compared the efficacy of compound 93 with compound 104, which contains an imidazole and is therefore not according to the invention. […] Test 3 compared the efficacy of compound 43, a further compound according to the invention, with compound 103, which contains an oxazole not according to the invention.

The subject of test [2] is Lolium multiflorum (LOLMU). Described as above. The conditions noted are these: rate 125 g/ha. The protocol:
as §1

Test [3] concerns Amaranthus retroflexus (AMARE). Described as above. The following applies: rate 125 g/ha. The method, then: as §1
In test [4] the test system is Veronica persica (VERPE). The test is described as above. The following applies: rate 125 g/ha. The method, then: as §1
Test [5] relates to Echinochloa crus-galli (ECHCG). Nature of the test: Post-emergence herbicidal test, % visual injury. The conditions noted are these: 336 h, 14±1 days post application; for pest or weed control at 500 g/ha: rate 500 g/ha; for pest or weed control at 1000 g/ha: rate 1000 g/ha. The protocol:
(§2) Seeds of a variety of test species are grown in a sandy loam soil mixture, Lolium multiflorum (LOLMU), Amaranthus retroflexus (AMARE), Echinochloa crus-galli (ECHCG), Veronica persica (VERPE).
(§3) After sowing, at growth stage BBCH 12-14 (post-emergence), the plants are sprayed with an aqueous spray solution derived from the formulation of the technical active ingredient in acetone/water (50:50) solution containing 0.5% Tween 20 (polyoxyethlyene sorbitan monolaureate, CAS RN 9005-64-5). The test compounds are applied at the required concentration of active ingredient in g/ha. The test plants are then grown in a glasshouse under controlled environmental conditions and watered regularly as required. After 14±1 days post application (for post-emergence test), the test is evaluated by assessing the percentage damage caused to the plants in comparison with the untreated plots. The biological activities for post-emergence testing are shown below (Table 3) as a % visual injury.

Test [6] concerns Lolium multiflorum (LOLMU). Nature of the test: Post-emergence herbicidal test, % visual injury. The following applies: 336 h, 14±1 days post application; for pest or weed control at 500 g/ha: rate 500 g/ha; for pest or weed control at 1000 g/ha: rate 1000 g/ha. The method, then: as §2, §3
Test [7] has as its system Amaranthus retroflexus (AMARE). Nature of the test: Post-emergence herbicidal test, % visual injury. The following applies: 336 h, 14±1 days post application; for pest or weed control at 500 g/ha: rate 500 g/ha; for pest or weed control at 1000 g/ha: rate 1000 g/ha. The protocol:
as §2, §3

The subject of test [8] is Veronica persica (VERPE). Nature of the test: Post-emergence herbicidal test, % visual injury. The following applies: 336 h, 14±1 days post application; for pest or weed control at 500 g/ha: rate 500 g/ha; for pest or weed control at 1000 g/ha: rate 1000 g/ha. The method, then:
as §2, §3

The test system of test [9] is Echinochloa crus-galli (ECHCG). Nature of the test: Pre-emergence herbicidal test, % visual injury. The following applies: 336 h, rate 1000 g/ha, 14±1 days post-emergence in untreated plots. The method, then: (§4) Pre-emergence testing was also performed using the same test species grown in a sandy loam soil mixture, Lolium multiflorum (LOLMU), Amaranthus retroflexus (AMARE), Echinochloa crus-galli (ECHCG), Veronica persica (VERPE).
(§5) After sowing, at growth stage BBCH 00-07 (pre-emergence), the plants are sprayed with an aqueous spray solution derived from the formulation of the technical active ingredient in acetone/water (50:50) solution containing 0.5% Tween 20 (polyoxyethlyene sorbitan monolaureate, GAS RN 9005-64-5). The test compounds are applied at the required […] concentration of active ingredient in g/ha. The test plants are then grown in a glasshouse under controlled environmental conditions and watered regularly as required. After 14±1 days post-emergence in untreated plots (for the pre-emergence test), the test is evaluated by assessing the percentage damage caused to the plants in comparison with the untreated plots. The biological activities for pre-emergence testing are shown below (Table 4) in the following table as a % visual injury.

The test system of test [10] is Lolium multiflorum (LOLMU). Nature of the test: Pre-emergence herbicidal test, % visual injury. The following applies: 336 h, rate 1000 g/ha, 14±1 days post-emergence in untreated plots. The method, then: as §4, §5
In test [11] the test system is Amaranthus retroflexus (AMARE). Nature of the test: Pre-emergence herbicidal test, % visual injury. The following applies: rate 1000 g/ha, 14±1 days post-emergence in untreated plots. The method, then: as §4, §5
Test [12] deals with Veronica persica (VERPE). Nature of the test: Pre-emergence herbicidal test, % visual injury. The following applies: 336 h, rate 1000 g/ha, 14±1 days post-emergence in untreated plots. The protocol:
as §4, §5

For `O=C(COc1ccc(F)cc1Cl)Nc1nnc[nH]1` [Compound 105], the “ECHCG % visual Injury” value in [1] worked out at 20%. Besides, in test [2], the “LOLMU % visual Injury” value turned out to be 0%. Besides, the “AMARE % visual Injury” value in [3] was found to be 50%. Besides, the “VERPE % visual Injury” value in the test on Veronica persica (VERPE) [4] came to 40%.
With `O=C(COc1ccc(F)cc1Cl)Nc1nnc(C(F)(F)F)[nH]1` [Compound 93], the pest or weed control at 500 g/ha was determined as 80% in test [5], 70% in [6], 100% in test [7] and 90% in the test on Veronica persica (VERPE) [8]. The “ECHCG % visual Injury” value in test [1] was 30%. For the same compound, the “LOLMU % visual Injury” value in test [2] was determined as 20%. In addition, the “AMARE % visual Injury” value in [3] is 60%. The “VERPE % visual Injury” value with Veronica persica (VERPE) [4] was 80%.
Regarding `O=C(COc1ccc(F)cc1Cl)Nc1nnc(C(F)(F)F)o1` [Compound 43], the “ECHCG % visual Injury” value in [1] was 30%. In test [2], the “LOLMU % visual Injury” value stood at 50%. The “AMARE % visual Injury” value in [3] was determined as 70%. Moreover, in the test on Veronica persica (VERPE) [4], the “VERPE % visual Injury” value was 70%.
For `Cc1cc(Cl)ccc1OCC(=O)Nc1nnc(C(F)(F)F)[nH]1` [Compound 35], the pest or weed control at 1000 g/ha in [5] worked out at 30%; in [6], 20%; in test [7] it was 80%; in the test with Veronica persica (VERPE) [8] it was 60%; in test [9] it was 80%; in test [10] it was 0%. Besides, in the test on Veronica persica (VERPE) [12], the pest or weed control at 1000 g/ha is 0%. Moreover, the “AMARE % visual Injury” value in test [11] turned out to be 20%.
With `Cc1cc(Cl)ccc1OCCCC(=O)Nc1nnc(C(F)(F)F)[nH]1` [Compound 29], the pest or weed control at 500 g/ha amounted to 0% in test [5], 60% in [6], 60% in test [7] and 80% in the test with Veronica persica (VERPE) [8]. Also, the figures for the pest or weed control at 1000 g/ha (in test [9]; in test [10]; in the test with Veronica persica (VERPE) [12]) were 0%, 20% and 0%, respectively.
As to `O=C(COc1ccc(Cl)cc1Cl)Nc1nnc(C(F)(F)F)[nH]1` [Compound 36], the pest or weed control at 1000 g/ha worked out at 30% in test [5]; 40% in [6]; 99% in [7]; 98% with Veronica persica (VERPE) [8]; 40% in test [9]; 0% in test [10]. The same compound yielded a pest or weed control at 1000 g/ha with Veronica persica (VERPE) [12] of 0%. Also, the “AMARE % visual Injury” value in test [11] is recorded as 40%.
`Cn1nnnc1NC(=O)COc1ccc(F)cc1Cl` [Compound 25]: the pest or weed control at 500 g/ha in test [5] came out at 0%; in [6] it was 70%; in [7], 40%; with Veronica persica (VERPE) [8] it was 70%. In addition, the pest or weed control at 1000 g/ha in [9] stood at 10%; in test [10] it was 0%; in the test with Veronica persica (VERPE) [12], 10%.
Take `O=C(COc1ccc(F)cc1Cl)Nc1ncc(C(F)(F)F)o1` [Compound 103]: the “ECHCG % visual Injury” value in test [1] was 30%. The “LOLMU % visual Injury” value in test [2] is 20%. In test [3], the “AMARE % visual Injury” value was 50%. The “VERPE % visual Injury” value with Veronica persica (VERPE) [4] is reported as 50%.
With `O=C(COc1ccc(F)cc1Cl)Nc1ncc(C(F)(F)F)[nH]1` [Compound 104], the “ECHCG % visual Injury” value in test [1] was found to be 30%. Moreover, the “LOLMU % visual Injury” value in test [2] is 10%. For the same compound, the “AMARE % visual Injury” value in test [3] is 40%. Further, the “VERPE % visual Injury” value in the test on Veronica persica (VERPE) [4] was 70%.
